These compounds were tested against Gamma-secretase (assay: Inhibition of gamma secretase in human H4 cells over expressing human APP695 harboring K595N/M596L Swedish double mutant assessed as reduction in Abeta42 production level after 24 hrs by Alphalisa assay).
Type: cell-based

SMILES	IC50 [nM]
Cc1cn(C23CC(Nc4nc5n(n4)CCCC[C@@H]5c4ccc(Cl)cc4)(C2)C3)cn1	26
Cc1cn(C23CC(Nc4nc5n(n4)CCCC[C@@H]5c4ccc(F)c(F)c4)(C2)C3)cn1	44
Cc1cn(C23CCC(Nc4nc5n(n4)CCCC[C@H]5c4ccc(F)c(F)c4)(CC2)CC3)cn1	49
Cc1cn(C23CC(Nc4nc5n(n4)CCCC[C@H]5c4ccc(Cl)cc4)(C2)C3)cn1	23
Cc1cn(C23CC(Nc4nc5n(n4)CCCC[C@H]5c4ccc(F)cc4)(C2)C3)cn1	31
Cc1cn(C23CC(Nc4nc5n(n4)CCCC[C@H]5c4cccc(Cl)c4)(C2)C3)cn1	16
Cc1cn(C23CC(Nc4nc5n(n4)CCCC[C@@H]5c4ccc(F)cc4)(C2)C3)cn1	25
Cc1cn(C23CC(Nc4nc5n(n4)CCCC[C@@H]5c4cccc(Cl)c4)(C2)C3)cn1	15
Cc1cn(C23CC(Nc4nc5n(n4)CCCC[C@H]5c4ccc(F)c(F)c4)(C2)C3)cn1	27
Cc1cn(C23CCC(Nc4nc5n(n4)CCCC[C@@H]5c4ccc(F)c(F)c4)(CC2)CC3)cn1	39

Further lines, results first:

IC50 [nM]	SMILES
8	Cc1cn(C23CC(Nc4nc5n(n4)CCCC[C@@H]5c4cc(F)cc(Cl)c4)(C2)C3)cn1
15	Cc1cn(C23CCC(Nc4nc5n(n4)CCCC[C@@H]5c4cc(F)cc(Cl)c4)(CC2)CC3)cn1
14	Cc1cn(C23CCC(Nc4nc5n(n4)CCCC[C@H]5c4cc(F)cc(Cl)c4)(CC2)CC3)cn1
14	Cc1cn(C23CC(Nc4nc5n(n4)CCCC[C@H]5c4cc(F)cc(Cl)c4)(C2)C3)cn1

— ChEMBL document CHEMBL4304806, “Triazolo-azepine Inhibitors of γ-Secretase and Their Methods of Use” (ACS Med Chem Lett, 2019)
